According to PubChem BioAssay AID248 (DTP/NCI, 2004):
Several values for one entry are separate records, joined by “and”; a condition that tells them apart may be missing. Identical values can stand only once. Toxic doses and inconclusive results are not listed. No stated cut-off is given here; in the data, active means T/C of 150% or more; inactive means T/C below 125%.

Tested on: L1210 leukemia ip in BDF1 mice, survival T/C
Test: NCI In Vivo Anticancer Drug Screen. Data for tumor model L1210 Leukemia (intraperitoneal) in B6D2F1 (BDF1) mice
Conditions: higher = longer survival
Outline: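 Transplanted-tumor mice were given test agent; controls received vehicle only. Survival readings from the two groups were divided (treated over control).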

[1] = endpoint: mean survival time, dose: 50.0 mg/kg/injection, schedule: Q01DX009 (ip), vehicle: Klucel (hydroxypropylcellulose) (HPC)
[2] = endpoint: mean survival time, dose: 100.0 mg/kg/injection, schedule: Q01DX009 (ip), vehicle: Klucel (hydroxypropylcellulose) (HPC)
[3] = endpoint: mean survival time, dose: 100.0 mg/kg/injection, schedule: Q04DX003 (ip), vehicle: Klucel (hydroxypropylcellulose) (HPC)
[4] = endpoint: mean survival time, dose: 200.0 mg/kg/injection, schedule: Q01DX009 (ip), vehicle: Klucel (hydroxypropylcellulose) (HPC)
[5] = endpoint: mean survival time, dose: 200.0 mg/kg/injection, schedule: Q04DX003 (ip), vehicle: Klucel (hydroxypropylcellulose) (HPC)
[6] = endpoint: mean survival time, dose: 400.0 mg/kg/injection, schedule: Q01DX009 (ip), vehicle: Klucel (hydroxypropylcellulose) (HPC)
[7] = endpoint: mean survival time, dose: 400.0 mg/kg/injection, schedule: Q04DX003 (ip), vehicle: Klucel (hydroxypropylcellulose) (HPC)
[8] = endpoint: mean survival time, dose: 100.0 mg/kg/injection, schedule: Q01DX001 (ip), vehicle: Klucel (hydroxypropylcellulose) (HPC)
[9] = endpoint: mean survival time, dose: 200.0 mg/kg/injection, schedule: Q01DX001 (ip), vehicle: Klucel (hydroxypropylcellulose) (HPC)
[10] = endpoint: mean survival time, dose: 400.0 mg/kg/injection, schedule: Q01DX001 (ip), vehicle: Klucel (hydroxypropylcellulose) (HPC)

Measured: T/C

CN1c2cccc[c]2[Sn]([CH3])([CH3])[c]2ccccc21
inactive: endpoint: mean survival time, dose: 100.0 mg/kg/injection, schedule: Q01DX001 (ip), vehicle: other 92 % of control | endpoint: mean survival time, dose: 200.0 mg/kg/injection, schedule: Q01DX001 (ip), vehicle: other 92 % of control | endpoint: mean survival time, dose: 400.0 mg/kg/injection, schedule: Q01DX001 (ip), vehicle: other 108 % of control

N#Cc1ccc(OCCCCCOc2ccc(C#N)cc2I)c(I)c1
inactive: endpoint: mean survival time, dose: 25.0 mg/kg/injection, schedule: Q04DX002 (ip), vehicle: Klucel (hydroxypropylcellulose) (HPC) 100 % of control | endpoint: mean survival time, dose: 50.0 mg/kg/injection, schedule: Q04DX002 (ip), vehicle: Klucel (hydroxypropylcellulose) (HPC) 100 % of control | endpoint: mean survival time, dose: 100.0 mg/kg/injection, schedule: Q04DX002 (ip), vehicle: Klucel (hydroxypropylcellulose) (HPC) 95 % of control and 97 % of control | endpoint: mean survival time, dose: 200.0 mg/kg/injection, schedule: Q04DX002 (ip), vehicle: Klucel (hydroxypropylcellulose) (HPC) 89 % of control | endpoint: mean survival time, dose: 400.0 mg/kg/injection, schedule: Q04DX002 (ip), vehicle: Klucel (hydroxypropylcellulose) (HPC) 94 % of control

Nc1nc2[nH]c(=O)cnc2c(=O)[nH]1
inactive: [1] 102 % of control | endpoint: mean survival time, dose: 50.0 mg/kg/injection, schedule: Q04DX003 (ip), vehicle: Klucel (hydroxypropylcellulose) (HPC) 107 % of control | [2] 111 % of control | [3] 110 % of control | [4] 107 % of control | [5] 102 % of control | [6] 95 % of control | [7] 104 % of control

CCOP(=O)(CC(=O)OC)OCC
inactive: endpoint: mean survival time, dose: 50.0 mg/kg/injection, schedule: Q04DX003 (ip), vehicle: saline 102 % of control | endpoint: mean survival time, dose: 100.0 mg/kg/injection, schedule: Q01DX009 (ip), vehicle: saline 103 % of control | endpoint: mean survival time, dose: 100.0 mg/kg/injection, schedule: Q04DX003 (ip), vehicle: saline 100 % of control | endpoint: mean survival time, dose: 200.0 mg/kg/injection, schedule: Q01DX009 (ip), vehicle: saline 101 % of control | endpoint: mean survival time, dose: 200.0 mg/kg/injection, schedule: Q04DX003 (ip), vehicle: saline 102 % of control | endpoint: mean survival time, dose: 400.0 mg/kg/injection, schedule: Q01DX009 (ip), vehicle: saline 88 % of control | endpoint: mean survival time, dose: 400.0 mg/kg/injection, schedule: Q04DX003 (ip), vehicle: saline 102 % of control

Cc1cccc(C(=O)NO)c1O
inactive: endpoint: mean survival time, dose: 75.0 mg/kg/injection, schedule: Q01DX001 (ip), vehicle: saline 101 % of control | endpoint: mean survival time, dose: 150.0 mg/kg/injection, schedule: Q01DX001 (ip), vehicle: saline 98 % of control

NNC(=S)N/N=C/c1ccccc1
inactive: [8] 93 % of control | [9] 93 % of control | [10] 100 % of control

Cc1ccc(S(=O)(=O)OCCS(C)(=O)=O)cc1
inactive: [8] 102 % of control | [2] 103 % of control | [3] 101 % of control | [9] 106 % of control | [4] 101 % of control | [5] 103 % of control | [10] 104 % of control | [6] 101 % of control | [7] 97 % of control

CNNCc1ccccc1
inactive: endpoint: mean survival time, dose: 100.0 mg/kg/injection, schedule: Q01DX001 (ip), vehicle: saline 117 % of control | endpoint: mean survival time, dose: 200.0 mg/kg/injection, schedule: Q01DX001 (ip), vehicle: saline 115 % of control

CC(=O)O[C@]1(C(C)=O)CC[C@H]2[C@@H]3C[C@H](C)C4=CC(=O)CC[C@]4(C)[C@H]3CC[C@@]21C
inactive: [1] 109 % of control | endpoint: mean survival time, dose: 100.0 mg/kg/injection, schedule: Q01DX001 (sc), vehicle: steriod suspending solution 102 % of control | [2] 101 % of control | endpoint: mean survival time, dose: 200.0 mg/kg/injection, schedule: Q01DX001 (sc), vehicle: steriod suspending solution 108 % of control | [4] 103 % of control | endpoint: mean survival time, dose: 200.0 mg/kg/injection, schedule: Q01DX009 (sc), vehicle: steriod suspending solution 91 % of control | endpoint: mean survival time, dose: 400.0 mg/kg/injection, schedule: Q01DX001 (sc), vehicle: steriod suspending solution 102 % of control | [6] 100 % of control | endpoint: mean survival time, dose: 400.0 mg/kg/injection, schedule: Q01DX009 (sc), vehicle: steriod suspending solution 94 % of control | endpoint: mean survival time, dose: 600.0 mg/kg/injection, schedule: Q01DX009 (sc), vehicle: steriod suspending solution 96 % of control | endpoint: mean survival time, dose: 800.0 mg/kg/injection, schedule: Q01DX009 (ip), vehicle: Klucel (hydroxypropylcellulose) (HPC) 104 % of control | endpoint: mean survival time, dose: 800.0 mg/kg/injection, schedule: Q01DX009 (sc), vehicle: steriod suspending solution 91 % of control | endpoint: mean survival time, dose: 1000.0 mg/kg/injection, schedule: Q01DX009 (sc), vehicle: steriod suspending solution 94 % of control | endpoint: median survival time, dose: 16.0 mg/kg/injection, schedule: Q03HX008 (ip), vehicle: Klucel (hydroxypropylcellulose) (HPC) 97 % of control | endpoint: median survival time, dose: 16.0 mg/kg/injection, schedule: Q03HX016 (ip), vehicle: Klucel (hydroxypropylcellulose) (HPC) 94 % of control | endpoint: median survival time, dose: 16.0 mg/kg/injection, schedule: Q03HX024 (ip), vehicle: Klucel (hydroxypropylcellulose) (HPC) 96 % of control | endpoint: median survival time, dose: 32.0 mg/kg/injection, schedule: Q03HX008 (ip), vehicle: Klucel (hydroxypropylcellulose) (HPC) 96 % of control | endpoint: median survival time, dose: 32.0 mg/kg/injection, schedule: Q03HX016 (ip), vehicle: Klucel (hydroxypropylcellulose) (HPC) 94 % of control | endpoint: median survival time, dose: 32.0 mg/kg/injection, schedule: Q03HX024 (ip), vehicle: Klucel (hydroxypropylcellulose) (HPC) 95 % of control | endpoint: median survival time, dose: 64.0 mg/kg/injection, schedule: Q01DX009 (ip), vehicle: Klucel (hydroxypropylcellulose) (HPC) 107 % of control | endpoint: median survival time, dose: 64.0 mg/kg/injection, schedule: Q03HX008 (ip), vehicle: Klucel (hydroxypropylcellulose) (HPC) 93 % of control | endpoint: median survival time, dose: 64.0 mg/kg/injection, schedule: Q03HX016 (ip), vehicle: Klucel (hydroxypropylcellulose) (HPC) 94 % of control | endpoint: median survival time, dose: 64.0 mg/kg/injection, schedule: Q03HX024 (ip), vehicle: Klucel (hydroxypropylcellulose) (HPC) 93 % of control | endpoint: median survival time, dose: 128.0 mg/kg/injection, schedule: Q01DX001 (ip), vehicle: Klucel (hydroxypropylcellulose) (HPC) 100 % of control | endpoint: median survival time, dose: 128.0 mg/kg/injection, schedule: Q01DX009 (ip), vehicle: Klucel (hydroxypropylcellulose) (HPC) 105 % of control | endpoint: median survival time, dose: 128.0 mg/kg/injection, schedule: Q03HX008 (ip), vehicle: Klucel (hydroxypropylcellulose) (HPC) 93 % of control | endpoint: median survival time, dose: 128.0 mg/kg/injection, schedule: Q03HX016 (ip), vehicle: Klucel (hydroxypropylcellulose) (HPC) 93 % of control | endpoint: median survival time, dose: 128.0 mg/kg/injection, schedule: Q04DX003 (ip), vehicle: Klucel (hydroxypropylcellulose) (HPC) 102 % of control | endpoint: median survival time, dose: 128.0 mg/kg/injection, schedule: Q08DX002 (ip), vehicle: Klucel (hydroxypropylcellulose) (HPC) 100 % of control | endpoint: median survival time, dose: 256.0 mg/kg/injection, schedule: Q01DX001 (ip), vehicle: Klucel (hydroxypropylcellulose) (HPC) 96 % of control | endpoint: median survival time, dose: 256.0 mg/kg/injection, schedule: Q01DX009 (ip), vehicle: Klucel (hydroxypropylcellulose) (HPC) 104 % of control | endpoint: median survival time, dose: 256.0 mg/kg/injection, schedule: Q04DX003 (ip), vehicle: Klucel (hydroxypropylcellulose) (HPC) 105 % of control | endpoint: median survival time, dose: 256.0 mg/kg/injection, schedule: Q08DX002 (ip), vehicle: Klucel (hydroxypropylcellulose) (HPC) 108 % of control | endpoint: median survival time, dose: 512.0 mg/kg/injection, schedule: Q01DX001 (ip), vehicle: Klucel (hydroxypropylcellulose) (HPC) 100 % of control | endpoint: median survival time, dose: 512.0 mg/kg/injection, schedule: Q01DX009 (ip), vehicle: Klucel (hydroxypropylcellulose) (HPC) 100 % of control | endpoint: median survival time, dose: 512.0 mg/kg/injection, schedule: Q04DX003 (ip), vehicle: Klucel (hydroxypropylcellulose) (HPC) 98 % of control | endpoint: median survival time, dose: 512.0 mg/kg/injection, schedule: Q08DX002 (ip), vehicle: Klucel (hydroxypropylcellulose) (HPC) 100 % of control | endpoint: median survival time, dose: 1024.0 mg/kg/injection, schedule: Q01DX001 (ip), vehicle: Klucel (hydroxypropylcellulose) (HPC) 102 % of control | endpoint: median survival time, dose: 1024.0 mg/kg/injection, schedule: Q01DX009 (ip), vehicle: Klucel (hydroxypropylcellulose) (HPC) 105 % of control | endpoint: median survival time, dose: 1024.0 mg/kg/injection, schedule: Q04DX003 (ip), vehicle: Klucel (hydroxypropylcellulose) (HPC) 114 % of control | endpoint: median survival time, dose: 1024.0 mg/kg/injection, schedule: Q08DX002 (ip), vehicle: Klucel (hydroxypropylcellulose) (HPC) 97 % of control | endpoint: median survival time, dose: 2048.0 mg/kg/injection, schedule: Q01DX001 (ip), vehicle: Klucel (hydroxypropylcellulose) (HPC) 92 % of control | endpoint: median survival time, dose: 2048.0 mg/kg/injection, schedule: Q08DX002 (ip), vehicle: Klucel (hydroxypropylcellulose) (HPC) 95 % of control
